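All cell lines were grown in 96-well plates and treated with compound for 48 hours. At the GI50, growth is halved. The concentration for full growth arrest is given as TGI.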
Assays:
Experiment in all cases: growth of human tumour cells (NCI), 48 h
[1] = tested on: 786-0 renal
[2] = tested on: NCI-H522 lung
[3] = tested on: OVCAR-4 ovarian
[4] = tested on: HT29 colon
[5] = tested on: OVCAR-8 ovarian
[6] = tested on: HCC-2998 colon
[7] = tested on: EKVX NSCLC
[8] = tested on: MDA-MB-231 breast
[9] = tested on: A549 NSCLC
[10] = tested on: SK-MEL-5 melanoma
[11] = tested on: HCT-15 colon
[12] = tested on: BT-549 breast
[13] = tested on: MDA-MB-435
[14] = tested on: DU-145 prostate
[15] = tested on: NCI-H23 lung
[16] = tested on: A498 renal
[17] = tested on: SK-MEL-28 melanoma
[18] = tested on: SK-OV-3 ovarian
[19] = tested on: NCI-H460 lung
[20] = tested on: SF-539 CNS
[21] = tested on: COLO 205 colon
[22] = tested on: UACC-257 melanoma
[23] = tested on: HCT-116 colon
[24] = tested on: SNB-75 CNS
[25] = tested on: SN12C renal
[26] = tested on: T-47D breast
[27] = tested on: CCRF-CEM leukemia
[28] = tested on: UACC-62 melanoma
[29] = tested on: SW-620 colon
[30] = tested on: SF-268 CNS
[31] = tested on: PC-3 prostate
[32] = tested on: SK-MEL-2 melanoma
[33] = tested on: SF-295 CNS
[34] = tested on: NCI/ADR-RES ovarian
[35] = tested on: CAKI-1 renal
[36] = tested on: HS 578T breast
[37] = tested on: M14 melanoma
[38] = tested on: TK-10 renal
[39] = tested on: UO-31 renal
[40] = tested on: MCF7 breast
[41] = tested on: HOP-62 NSCLC
[42] = tested on: SNB-19 CNS
[43] = tested on: MALME-3M melanoma
[44] = tested on: RXF 393 renal
[45] = tested on: OVCAR-3 ovarian
[46] = tested on: OVCAR-5 ovarian
[47] = tested on: HOP-92 NSCLC
[48] = tested on: IGROV1 ovarian
[49] = tested on: NCI-H226 lung
[50] = tested on: LOX IMVI melanoma
[51] = tested on: U251 CNS
[52] = tested on: ACHN renal
[53] = tested on: RPMI-8226 leukemia
[54] = tested on: MOLT-4 leukemia
[55] = tested on: K-562 leukemia
[56] = tested on: HL-60(TB) leukemia
[57] = tested on: SR leukemia
[58] = tested on: KM12 colon

Compound: COc1cc(C(=O)O[C@H](C(N)=O)[C@]2(C)CO2)c2cccc(C)c2c1
- GI50 [1]: 2.31 µM
- TGI [1]: 5.75 µM
- GI50 [2]: < 34.2 nM
- TGI [2]: 638 nM
- TGI [3]: > 26 µM
- GI50 [4]: < 41.8 nM
- GI50 [5]: < 0.01 µM
- TGI [5]: 438 nM
- GI50 [6]: 25.7 nM
- TGI [6]: 540 nM
- GI50 [7]: 350 nM
- TGI [7]: 4.61 µM
- GI50 [8]: 16 nM
- TGI [8]: 1.29 µM
- TGI [9]: > 100 µM
- GI50 [10]: < 0.0158 µM
- TGI [10]: 0.0522 µM
- GI50 [11]: 282 nM
- TGI [11]: 2820 nM
- GI50 [12]: < 0.0418 µM
- TGI [12]: 0.655 µM
- GI50 [13]: < 21.5 nM
- TGI [13]: 126 nM
- GI50 [14]: < 0.017 µM
- TGI [14]: 92.8 nM
- GI50 [15]: < 0.0203 µM
- GI50 [16]: 4310 nM
- TGI [16]: 15.4 µM
- GI50 [17]: 0.0744 µM
- TGI [17]: 1700 nM
- GI50 [18]: 1450 nM
- TGI [18]: 7.99 µM
- GI50 [19]: 395 nM
- TGI [19]: > 32.1 µM
- GI50 [20]: < 12.1 nM
- TGI [20]: < 0.0465 µM
- TGI [21]: 11.4 µM
- GI50 [22]: 1.49 µM
- TGI [22]: > 21.3 µM
- GI50 [23]: 431 nM
- TGI [23]: 2320 nM
- GI50 [24]: 933 nM
- TGI [24]: 4.13 µM
- GI50 [25]: < 0.01 µM
- TGI [25]: 245 nM
- GI50 [26]: 1110 nM
- TGI [26]: 8.1 µM
- TGI [27]: 5.94 µM
- GI50 [28]: 20 nM
- TGI [28]: 154 nM
- GI50 [29]: < 10 nM
- TGI [29]: 1720 nM
- TGI [30]: > 100 µM
- TGI [31]: 2760 nM
- GI50 [32]: < 10 nM
- TGI [32]: 0.0478 µM
- GI50 [33]: < 41.7 nM
- TGI [33]: 1.84 µM
- GI50 [34]: 108 nM
- TGI [34]: 507 nM
- GI50 [35]: < 0.0211 µM
- GI50 [36]: 130 nM
- TGI [36]: 15.5 µM
- GI50 [37]: 2130 nM
- TGI [37]: 4.84 µM
- GI50 [38]: < 0.0406 µM
- GI50 [39]: 0.0404 µM
- TGI [39]: 330 nM
- GI50 [40]: < 36.7 nM
- TGI [40]: > 100 µM
- GI50 [41]: 2230 nM
- TGI [41]: 5.35 µM
- GI50 [42]: 1.21 µM
- TGI [42]: 5.02 µM
- GI50 [43]: 0.13 µM
- TGI [43]: 646 nM
- GI50 [44]: 148 nM
- TGI [44]: 1.1 µM
- GI50 [45]: < 31.7 nM
- TGI [45]: 8.21 µM
- GI50 [46]: 0.766 µM
- TGI [46]: 6.01 µM
- GI50 [47]: 654 nM
- TGI [47]: 2.28 µM
- GI50 [48]: < 0.01 µM
- TGI [48]: 56.7 nM

Compound: COc1ccc(-c2noc(N)c2-c2cc(OC)c3c(c2)OCO3)cc1
- GI50 [1]: 8.36 µM
- TGI [1]: > 100 µM
- GI50 [2]: 1240 nM
- GI50 [3]: 24.3 µM
- TGI [3]: > 100 µM
- GI50 [4]: 1390 nM
- TGI [4]: > 35.5 µM
- GI50 [5]: 3.98 µM
- TGI [5]: > 100000 nM
- GI50 [6]: 3680 nM
- TGI [6]: > 33900 nM
- GI50 [8]: 2760 nM
- TGI [8]: 60.9 µM
- GI50 [9]: 3.13 µM
- TGI [9]: > 100 µM
- GI50 [10]: 3.14 µM
- TGI [10]: 21.2 µM
- GI50 [11]: 616 nM
- TGI [11]: > 100000 nM
- GI50 [12]: 3.01 µM
- TGI [12]: 61.9 µM
- GI50 [49]: 18 µM
- TGI [49]: > 100 µM
- GI50 [14]: 3.42 µM
- TGI [14]: > 90900 nM
- GI50 [15]: 3.17 µM
- TGI [15]: > 83.1 µM
- GI50 [16]: 1240 nM
- TGI [16]: 7.55 µM
- GI50 [17]: 6.31 µM
- TGI [17]: > 100000 nM
- GI50 [18]: 4540 nM
- TGI [18]: > 38.3 µM
- GI50 [19]: 3130 nM
- TGI [19]: 28 µM
- GI50 [20]: 1760 nM
- TGI [20]: 4.91 µM
- GI50 [21]: 2340 nM
- TGI [21]: 9.41 µM
- GI50 [22]: 5.87 µM
- TGI [22]: > 100 µM
- GI50 [50]: 4.02 µM
- TGI [50]: > 100 µM
- GI50 [23]: 2400 nM
- TGI [23]: > 48300 nM
- GI50 [24]: 1740 nM
- TGI [24]: 7.03 µM
- GI50 [25]: 4.14 µM
- TGI [25]: > 100000 nM
- GI50 [26]: 3610 nM
- TGI [26]: > 54.8 µM
- GI50 [27]: 1450 nM
- TGI [27]: > 35.8 µM
- GI50 [51]: 3.7 µM
- TGI [51]: > 100 µM
- GI50 [28]: 4220 nM
- TGI [28]: > 100000 nM
- GI50 [29]: 677 nM
- TGI [29]: > 100000 nM
- GI50 [30]: 5.47 µM
- TGI [30]: 98.9 µM
- GI50 [31]: 3.36 µM
- TGI [31]: > 100000 nM
- GI50 [32]: 1510 nM
- TGI [32]: 6.83 µM
- GI50 [52]: 6.88 µM
- TGI [52]: > 100 µM
- GI50 [33]: 2640 nM
- TGI [33]: 28.6 µM
- GI50 [34]: 721 nM
- GI50 [53]: 3.25 µM
- TGI [53]: > 49.9 µM
- GI50 [35]: 3.21 µM
- TGI [35]: > 100 µM
- GI50 [36]: 2610 nM
- TGI [36]: 24.4 µM
- GI50 [54]: 1980 nM
- TGI [54]: > 64.1 µM
- GI50 [55]: 405 nM
- TGI [55]: > 100 µM
- GI50 [37]: 1300 nM
- TGI [37]: 7.02 µM
- GI50 [38]: 7.8 µM
- TGI [38]: > 100 µM
- GI50 [39]: 7.39 µM
- TGI [39]: > 100000 nM
- GI50 [40]: 707 nM
- TGI [40]: > 100 µM
- GI50 [41]: 3190 nM
- TGI [41]: > 100 µM
- GI50 [56]: 1640 nM
- TGI [56]: 7.6 µM
- GI50 [42]: 10.6 µM
- TGI [42]: > 100 µM
- GI50 [43]: 9.66 µM
- TGI [43]: > 100000 nM
- GI50 [57]: 523 nM
- TGI [57]: > 51.2 µM
- GI50 [44]: 2600 nM
- TGI [44]: 15 µM
- GI50 [45]: 2530 nM
- TGI [45]: 12.9 µM
- GI50 [58]: 1970 nM
- TGI [58]: > 100 µM
- GI50 [46]: 5.63 µM
- TGI [46]: > 82.2 µM
- GI50 [47]: 2470 nM
- TGI [47]: 76.8 µM
- GI50 [48]: 6.8 µM
- TGI [48]: > 100000 nM
